US5798350A, “Dopamine receptor ligands” (Allelix Biopharmaceuticals, Inc., priority 1996, dated 1998)

Legend:
[1] = molecular target: T1, human D2 receptor (short isoform) (Homo sapiens, UniProt P14416); assay: D2 receptor binding, displacement of 3H-spiperone (GH4C1 cells), for D2/D4 selectivity; details: for D2/D4: D4 selectivity, ratio D2/D4
T1 construct: membrane homogenate, 3H-spiperone displacement
Protocol: (§1) The potency of the test compound to reduce ^3 H-spiperone binding directly correlated to its binding affinity for the receptor.
GH4 C1 (rat pituitary) cells stably transfected with the human D2 receptor (short isoform) were grown in CO2 independent media in roller bottles (1500 cm^2) for 10 days. 100 μM ZnSO4 was added to the cells (the D2 promoter being zinc inducible). After 16 hours, fresh media was added to allow the cells to recover for 24 hours. The cells were harvested using versene and then centrifuged in a Sorval centrifuge for 10 minutes, at 5000 rpm (GS3 rotor). Pellets were quickly frozen in liquid nitrogen and stored at -80° C. until used in the binding assays. When used in the assay, cells were thawed on ice for 20 minutes. […] 10 mL of incubation buffer was added to the pellets which were then vortexed, resuspended and homogenized with a Kinematica CH-6010 Kriens-LU homogenizer for 15 seconds at setting 7. The receptor protein concentration was determined using the Pierce BCA assay.
(§2) Total Spiperone Binding Assay
(§3) The incubation was started by the addition of 500 μl (50 μg protein) membrane homogenate to a solution of 900 μl incubation buffer and 100 μl (0.25 nM final conc.) ^3 H-spiperone (90 Ci/mmol Amersham diluted in borosilicate glass vial) in 12×75 mm polypropylene tubes. The tubes were vortexed and incubated at room temperature for 90 minutes. The binding reaction was stopped by filtering using a Brandell Cell Harvester. The samples were filtered under vacuum over glass fibre filters (Whatman GF/B) presoaked for 2 hours in 0.3% polyethyleneimine (PEI) in 50 mM Tris buffer (pH7.4). The filters were then washed 3 times with 5 mL ice cold 50 mM Tris buffer (pH7.4). Individual filter disks were put in scintillation vials (Biovials, Bechman). Ready Protein Plus liquid scintillant (5 mL, Beckman) was added and the vials counted by liquid scintillation spectrophotometry (Beckman LSC 6500) after equilibrating for three hours at room temperature to determine total binding (BT).
Non-Specific Binding Assay for D2
This assay employed the same procedures as the non-specific binding assay for D4 with the exception that 2 μM (final conc.) of (-) sulpiride (Research Chemicals Inc.) was used in place of dopamine.
(§4) Displacement Binding Assay
(§5) The incubation was started by the addition to 12×75 mm polypropylene tubes 500 μl (50 μg protein) membrane homogenate to a solution of 400 μl incubation buffer, 100 μl (0.25 final conc.) ^3 H-spiperone (90Ci/mmol, Amersham, diluted in borosilicate glass vial to) and […] of test compound that was prepared from 1 mM stock dissolved in DMSO and stored at -20° C. in polypropylene cryogenic storage vials until dilution in incubation buffer in borosilicate glass vials. The tubes were vortexed and incubated at room temperature for 90 minutes at which time the binding reaction was stopped by filtering. The filters were washed and counted using the same procedure as in the total binding assay described above to give the displacement binding value (BD).
Specific binding in the absence of test compound (BO) was the difference of total binding (BT) minus non-specific binding (NSB) and similarly specific binding (in the presence of test compound) (B) was the difference of displacement binding (BD) minus non-specific binding (NSB). IC50 was determined from an inhibition response curve, logit-log plot of %B/BO vs concentration of test compound.
(§6) Ki was calculated by the Cheng and Prustoff transformation: […]
(§7) where [L] is the concentration of ^3 H-spiperone used in the assay and KD is the to dissociation constant of ^3 H-spiperone determined independently under the same binding conditions.

[2] = molecular target: T2, human D4 receptor (D4.2 sub-type) (Homo sapiens, UniProt P21917, DEL265-296); assay: D4 receptor binding, displacement of 3H-spiperone; details: for Ki: human D4 receptor, 3H-spiperone 0.25 nM
T2 construct: expressed in transfected cells; host or cells: HEK 298 (human embryonic kidney) cells, [sic]; homogenate of stably transfected cells
T2 sequence (P21917 with tags, fused parts or gaps DEL265-296): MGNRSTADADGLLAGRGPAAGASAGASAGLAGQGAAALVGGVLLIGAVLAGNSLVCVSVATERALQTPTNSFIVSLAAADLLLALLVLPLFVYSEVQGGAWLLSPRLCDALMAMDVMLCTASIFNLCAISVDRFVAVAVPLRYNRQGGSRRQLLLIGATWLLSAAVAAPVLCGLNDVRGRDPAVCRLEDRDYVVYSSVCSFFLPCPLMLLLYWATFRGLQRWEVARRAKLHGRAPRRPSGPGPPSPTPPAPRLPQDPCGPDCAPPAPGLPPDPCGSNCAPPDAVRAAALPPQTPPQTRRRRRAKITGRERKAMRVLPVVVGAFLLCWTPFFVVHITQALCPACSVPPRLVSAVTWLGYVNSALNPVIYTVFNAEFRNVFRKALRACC
Protocol: as §1
The cells were then centrifuged in a Sorval centrifuge for 10 minutes, 5000 rpm (GS3 rotor) and the pellets quickly frozen in liquid nitrogen and stored at -80° C. until used in binding assay. When used in the assay, cells were thawed on ice for 20 minutes and then 10 mL of incubation buffer (50 mM Tris, 1 mM EDTA, 4 mM MgCl2, 5 mM KCl, 1.5 mM CaCl2, 120 mM NaCl, pH7.4) was added. […] Concentration of receptor protein was determined using the Pierce BCA assay.
as §2
as §3, with “The” for “The incubation was started by the addition of 500 μl (50 μg protein) membrane homogenate to a solution of 900 μl incubation buffer and 100 μl (0.25 nM final conc.) ^3 H-spiperone (90 Ci/mmol Amersham diluted in borosilicate glass vial) in 12×75 mm polypropylene tubes. The”
Non-Specific Binding Assay for D4
The tubes were vortexed and incubated at room temperature for 90 minutes at which time the binding reaction was stopped by filtering. The filters were washed and counted using the same procedure as in the total binding assay described above to give the non-specific binding value (NSB).
as §4, §5
IC50 was determined from an inhibition response curve, logit-log plot of %B/BO vs concentration of test compound.
as §6, §7

D4 receptor = details: background, cited from earlier work
[3] = compared with corresponding 4-methyl piperazine compound

T1 sequence (P14416 with tags, fused parts or gaps DEL242-270): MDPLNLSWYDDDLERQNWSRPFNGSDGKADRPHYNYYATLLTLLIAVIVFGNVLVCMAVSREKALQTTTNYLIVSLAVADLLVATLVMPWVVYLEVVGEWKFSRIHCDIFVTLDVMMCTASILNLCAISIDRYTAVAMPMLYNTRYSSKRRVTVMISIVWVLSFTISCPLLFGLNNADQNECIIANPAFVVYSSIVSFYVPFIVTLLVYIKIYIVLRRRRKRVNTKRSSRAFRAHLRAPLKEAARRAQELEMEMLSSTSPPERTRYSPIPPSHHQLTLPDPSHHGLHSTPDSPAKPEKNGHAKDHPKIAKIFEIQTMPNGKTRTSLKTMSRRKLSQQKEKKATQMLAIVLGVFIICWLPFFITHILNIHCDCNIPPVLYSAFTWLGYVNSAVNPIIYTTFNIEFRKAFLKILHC

Row | Compound | D2/D4 [1] | D4 selectivity ([1]; compared with clozapine) | D4 selectivity [1, 3] | Ki [2] | D4 affinity ([2]; compared with clozapine) | D4 affinity and selectivity [2, 3] | D4 affinity and selectivity ([2]; compared with clozapine) | preference for binding the D4 receptor relative to the D2 receptor (D4 receptor) | Ki (D4 receptor; read-out: Ki value (D4 affinity))
1 | Clc1ccc2c(c1)C(N1CCN(Cc3ccc4c(c3)OCO4)CC1)=Nc1cc(Cl)c(Cl)cc1N2 [2,7,8-trichloro-11-(4-piperonyl-1-piperazinyl)-5H-dibenzo[b,e][1,4]diazepine] | 15.7 | better D4 selectivity than clozapine | better D4selectivity than the corresponding 4-methyl piperazine compound | 149 nM |  |  |  |  | 
2 | Clc1ccc2c(c1)C(N1CCN(Cc3ccc4c(c3)OCO4)CC1)=Nc1ccccc1N2 [2-Chloro-11-(4-piperonyl)-1-piperazinyl-5H-dibenzo[b,e][1,4]diazepine] | 7.3 |  |  | 76 nM |  |  |  |  | 
3 | COc1ccc2c(c1)C(N1CCN(Cc3ccc4c(c3)OCO4)CC1)=Nc1ccccc1N2 [2-methoxy-11-(4-piperonyl-1-piperazinyl)-5H-dibenzo[b,e][1,4]diazepine] | 5.1 |  | better D4selectivity than the corresponding 4-methyl piperazine compound | 15 nM | better D4 affinity than clozapine | better D4 affinity and selectivity than the corresponding 4-methyl piperazine compound |  |  | 
4 | O=[N+]([O-])c1ccc2c(c1)C=C(N1CCN(Cc3ccc4c(c3)OCO4)CC1)c1ccccc1S2 [2-nitro-10-(4-piperonyl-1-piperazinyl)dibenzo[b,f]thiepine] | 281 | better D4 selectivity than clozapine | better D4selectivity than the corresponding 4-methyl piperazine compound | 15.3 nM | better D4 affinity than clozapine |  | better D4 affinity and selectivity than clozapine |  | 
5 | FC(F)(F)c1ccc2c(c1)C(N1CCN(Cc3ccc4c(c3)OCO4)CC1)=Nc1ccccc1N2 [2-trifluoromethyl-11-(4-piperonyl-1-piperazinyl)-5H-dibenzo[b,e][1,4]diazepine] | 1.9 |  | better D4selectivity than the corresponding 4-methyl piperazine compound | 73.5 nM |  |  |  |  | 
6 | Clc1cccc2c1Nc1ccccc1N=C2N1CCN(Cc2ccc3c(c2)OCO3)CC1 [4-chloro-11-(4-piperonyl-1-piperazinyl)-5H-dibenzo[b,e][1,4]diazepine] | 10.6 | better D4 selectivity than clozapine |  | 34 nM |  |  |  |  | 
7 | Clc1cccc2c1Oc1ccccc1N=C2N1CCN(Cc2ccc3c(c2)OCO3)CC1 [4-chloro-11-(4-piperonyl-1-piperazinyl)dibenz[b,f][1,4]oxazepine] | 99.2 | better D4 selectivity than clozapine |  | 57 nM |  |  |  |  | 
8 | N#Cc1cccc2c1Oc1ccccc1N=C2N1CCN(Cc2ccc3c(c2)OCO3)CC1 [4-cyano-11-(4-piperonyl-1-piperazinyl)dibenz[b,f][1,4]oxazepine] | 82.1 | better D4 selectivity than clozapine |  | 119 nM |  |  |  |  | 
9 | O=[N+]([O-])c1cccc2c1Oc1ccccc1N=C2N1CCN(Cc2ccc3c(c2)OCO3)CC1 [4-nitro-11-(4-piperonyl-1-piperazinyl)dibenz[b,f][1,4]oxazepine] | 53.2 | better D4 selectivity than clozapine |  | 24.5 nM |  |  |  |  | 
10 | Clc1cc2c(cc1Cl)Nc1ccccc1C(N1CCN(Cc3ccc4c(c3)OCO4)CC1)=N2 [7,8-dichloro-11-(4-piperonyl-1-piperazinyl)-5H-dibenzo[b,e][1,4]diazepine] | 27.4 | better D4 selectivity than clozapine | better D4selectivity than the corresponding 4-methyl piperazine compound | 61 nM |  |  |  |  | 
11 | Cc1cc2c(cc1C)Nc1ccccc1C(N1CCN(Cc3ccc4c(c3)OCO4)CC1)=N2 [7,8-dimethyl-11-(4-piperonyl)-1-piperazinyl)-5H-dibenzo[b,f][1,4]diazepine] | 14.1 | better D4 selectivity than clozapine | better D4selectivity than the corresponding 4-methyl piperazine compound | 266 nM |  | better D4 affinity and selectivity than the corresponding 4-methyl piperazine compound |  |  | 
12 | Clc1ccc2c(c1)N=C(N1CCN(Cc3ccc4c(c3)OCO4)CC1)c1ccccc1S2 [8-chloro-11-(4-piperonyl)-1-piperazinyl)dibenzo[b,f][1,4]thiazepine] | 63 | better D4 selectivity than clozapine | better D4selectivity than the corresponding 4-methyl piperazine compound | 24 nM |  | better D4 affinity and selectivity than the corresponding 4-methyl piperazine compound |  |  | 
13 | Cc1ccc2c(c1)N=C(N1CCN(Cc3ccc4c(c3)OCO4)CC1)c1ccccc1O2 [8-methyl-11-(4-piperonyl)-1-piperazinyl)dibenz[b,f][1,4]oxazepine] | 9.8 |  | better D4selectivity than the corresponding 4-methyl piperazine compound | 143 nM |  | better D4 affinity and selectivity than the corresponding 4-methyl piperazine compound |  |  | 
14 | c1ccc2c(c1)N=C(N1CCN(Cc3ccc4c(c3)OCO4)CC1)c1ccccc1N2 [11-(4-piperonyl)-1-piperazinyl-5H-dibenzo[b,e][1,4]diazepine] | 6 |  | better D4selectivity than the corresponding 4-methyl piperazine compound | 63 nM |  | better D4 affinity and selectivity than the corresponding 4-methyl piperazine compound |  |  | 
15 | CN1CCN(C2=Nc3cc(Cl)ccc3Oc3ccccc32)CC1 [isoloxapine] |  |  |  |  |  |  |  | about 10 fold | ~20 nM
